Test results taken from patent US20240300927A1, “AMIDES AS CBL-B INHIBITORS” (Genentech, Inc., priority 2021, published 2024).

Key:
[1] = biological target: Human Cbl-b (residues 40-426) (Homo sapiens (Human), UniProt Q13191); assay: Cbl-b SPR assay (incl. multi-point chaser variation); type: binding
Experimental: Affinity of binding to Cbl-b and c-Cbl for compounds described herein can be assessed by surface plasmon resonance (SPR) according to the following protocol. All experiments were recorded on a Biacore™ 8K or Biacore™ 8K+ (Cytiva) with both surface preparation and experimental measurements performed at 20° C. in an assay buffer consisting of 50 mM HEPES, pH 7.5, 0.15 M NaCl, 0.001% (v/v) Tween® 20, 0.2 mM tris(2-carboxyethyl)phosphine, 0.025% (w/v) carboxymethylated dextran (average MW 10 kDa), 0.2% (w/v) PEG 3350, and 2% DMSO. […]
For SPR measurements, 6 concentrations with 2 fold serial dilution were measured with blanks flanking each series for double referencing. […] SPR sensorgrams were recorded in multi-cycle kinetics format, with a contact time of 60 seconds and a flow rate of 40 μl/min, the dissociation time was varied between 120-1200 seconds aiming for 4-5 half-lives of the measured interaction. […]
In the case of potent compounds, the protein-compound half-life cannot be accurately measured using routine fitting of the single cycle titration data. The kd is measured independently by determining the percentage unoccupied compound binding site over time by measuring the binding of a chaser compound measured by SPR.
Chaser binding was measured by a multicycle kinetics SPR experiment using a contact time of 20 seconds, a flow rate of […], and a dissociation time of 120 seconds. […]

[2] = Liver microsomes metabolic stability, mouse; type: in vitro ADME
Experimental: (§1) Metabolic stability of test compounds was evaluated in pooled rat, mouse, dog, and cynomolgus monkey liver microsomes (BD Biosciences, San Jose, CA). The incubation conditions were as follows: 1 μM of the tested compound, 1 mM NADPH, 0.5 mg/mL microsomal protein in 0.1 M potassium phosphate buffer (pH 7.4). Following a 5-minute pre-incubation period, the enzymatic reactions were initiated by the addition of NADPH and test compound to the microsomes diluted in phosphate buffered saline. The mixtures were incubated at 37° C. for 0, 20, 40, and 60 min.
(§2) Compound concentrations were assessed by LC-MS/MS. Intrinsic clearance based upon microsomal stability data was determined using a substrate depletion method and scaled to hepatic clearance using the well-stirred model (Obach, R. S.; Baxter, J. G.; Liston, T. E.; Silber, B. M.; Jones, B. C.; MacIntyre, F.; Rance, D. J.; Wastall, P., “The Prediction of Human Pharmacokinetic Parameters from Preclinical and in vitro Metabolism Data”, J. Pharmacol. Exp. Ther., (1997), 283 (1), 46-58).

[3] = Liver microsomes metabolic stability, dog; type: in vitro ADME
Experimental: as §1, §2

[4] = LogD; type: physicochemical

Human Cbl-b (residues 40-426), sequence (Q13191 40-426): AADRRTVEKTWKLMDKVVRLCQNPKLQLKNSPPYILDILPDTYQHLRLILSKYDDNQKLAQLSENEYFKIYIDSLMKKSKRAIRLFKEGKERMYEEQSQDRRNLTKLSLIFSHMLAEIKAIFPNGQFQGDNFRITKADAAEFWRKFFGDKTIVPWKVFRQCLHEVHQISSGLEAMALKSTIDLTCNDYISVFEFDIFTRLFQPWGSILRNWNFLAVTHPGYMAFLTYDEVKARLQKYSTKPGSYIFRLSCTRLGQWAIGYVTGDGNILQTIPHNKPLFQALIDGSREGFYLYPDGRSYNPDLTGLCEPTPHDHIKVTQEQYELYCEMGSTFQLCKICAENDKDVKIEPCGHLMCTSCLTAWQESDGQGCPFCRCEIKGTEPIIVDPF

CC(C)[C@H]1CN(C)CCN1Cc1cc(C(=O)Nc2cccc(C3(Cc4nncn4C)CC(F)(F)C3)c2)nc(C2CC2)c1 [Compound 224, (S)-6-cyclopropyl-N-(3-(3,3-difluoro-1-((4-methyl-4H-1,2,4-triazol-3-yl)methyl)cyclobutyl)phenyl)-4-((2-isopropyl-4-methylpiperazin-1-yl)methyl)picolinamide]
Kd ([1]; read-out: SPR Kd kin): 5.6 nM
SPR Kd kin (select.) ([1]; selectivity): 1.3 x
LM (H/R/M/D/C) [2]: 60
LM (H/R/M/D/C) [3]: 29
logD [4]: 2.2
